Measurements from patent US20240124483A1, “Methods for the Treatment of Fibrotic Disease” (SHY Therapeutics, LLC, priority 2021, published 2024).
Where two headings read alike, the source gives them in different places.

Experiments:
ERK1/2 phosphorylation = test: Western ERK1/2 Cell-Based Phosphorylation Assay; details: Homo sapiens, PANC-1, 6 hours, EGF 1.5 ng/ml, read-out: % inh of ERK1/2 phosphorylation in PANC-1
Description: Cell lines: Human tumor-derived pancreatic cancer cell line Panc-1 was purchased from American Type Culture Collection and grown in complete DMEM-High Glucose, supplemented with penicillin (100 U/mL), streptomycin (100 μg/mL), and 10% heat-inactivated FBS at 37° C. in a humidified incubator with 5% CO2.
(§1) Method: Cells were plated at 350000 cells/well density in a 12-well plate, allowed 3 hours to adhere to the plate, then starved in the appropriate medium in the presence of 0.5% FBS overnight. The small molecules to be tested were added to the cells in the final concentration of 10 μM in the presence of 0.3% DMSO for 6 hours incubation at 37° C. For IC50 value determination, serial dilutions of compounds were added to cells under the same conditions. Next, cells were stimulated with 1.5 ng/ml EGF for 15 minutes then cells were lysed with lysis buffer containing 1% Triton X-100, EDTA, and Halt™ Protease & Phosphatase Inhibitor Cocktail (Thermo Scientific). Protein concentration was assessed by BCA protein assay (Thermo Scientific). Phosphorylation level of ERK1/2 was determined by western blot.
(§2) Western blot protocol: Equal amounts of protein (15-50 μg) were separated by SDS-PAGE and transferred to nitrocellulose membranes (Invitrogen by Thermo Fisher Scientific). The membrane was stained with Ponceau S Stain (Boston BioProducts) to verify uniform protein loading. Membranes were blocked with 10% milk and phosphorylation levels of ERK1/2 were assessed by incubating overnight at 4° C. with anti-phospho-p44/42 (Thr202/Tyr204) antibody (Cell Signaling) followed by HRP-conjugated secondary antibody (Jackson Immunoresearch, West Grove, PA). Bands were incubated in Amersham ECL Prime Western Blotting Detection Reagent (GE Healthcare) and visualized using the ChemiDoc MP imaging system (Bio-Rad).

AKT phosphorylation = test: Western AKT Cell-Based Phosphorylation Assay; details: Homo sapiens, PANC-1, 6 hours, EGF 1.5 ng/ml, read-out: % inh of AKT phosphorylation in PANC-1
Description: Human tumor-derived pancreatic cancer cell line Panc-1 was purchased from American Type Culture Collection and grown in complete DMEM-High Glucose supplemented with penicillin (100 U/mL), streptomycin (100 μg/mL), and 10% heat-inactivated FBS at 37° C. in a humidified incubator with 5% CO2.
as §1, with “C.” for “C. For IC50 value determination, serial dilutions of compounds were added to cells under the same conditions.”, “Akt” for “ERK1/2”
as §2, with “Akt” for “ERK1/2”, “anti-phospho-Akt (Ser473)” for “anti-phospho-p44/42 (Thr202/Tyr204)”

MiaPaca2 = MiaPaca2 proliferation; type: cell-based; details: Homo sapiens, MIA PaCa-2; for inhibition at 10 µM: read-out: % inh of proliferation in MiaPaca2
KRas Q61H mutant = KRas Q61H mutant (Homo sapiens (Human), UniProt P01116, Q61H); test: Ras GTP Binding Domain Inhibition Assay, KRas Q61H mutant
Sequence of KRas Q61H mutant (P01116 other isoform, or with tags, fused parts or gaps Q61H): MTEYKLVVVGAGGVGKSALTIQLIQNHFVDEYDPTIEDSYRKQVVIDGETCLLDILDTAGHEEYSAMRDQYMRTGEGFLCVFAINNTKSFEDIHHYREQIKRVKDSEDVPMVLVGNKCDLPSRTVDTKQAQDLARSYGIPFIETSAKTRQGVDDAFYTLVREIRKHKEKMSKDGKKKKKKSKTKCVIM
Description: A Ras Superfamily Activity Assay (as disclosed in International Application No. PCT/US2018/038613, filed Jun. 20, 2018, which is incorporated by reference in its entirety) was used as a specific assay to evaluate compounds against the following for the following Ras Superfamily proteins: KRas wild type, KRas Q61H mutant, KRas G12C mutant, KRas G12D mutant, Rac-1, and Rho-A.
Buffer-I: • 25 mM Tris-HCl, pH 7.4 • 27 mM KCl • 137 mM NaCl • 1 mM MgCl2 • 1 mM DTT
Buffer-II: • 50 mM Tris-HCl, pH 7.0 • 1 mM MgCl2 • 1 mM DTT
The small GTPases proteins: KRas wild type. KRas Q61H mutant, KRas G12C mutant, KRas G12D mutants, Rac-1, and Rho-A were expressed as His-tagged proteins. In addition, the Guanosine nucleotide Exchange Factor (GEF) Sos protein (residues 556-1049) was expressed as a His-tagged protein. In cells, the guanine nucleotide exchange factor Sos protein promotes activation of Ras proteins by stimulating an exchange of GDP for GTP. The inclusion of Sos to the Ras GTP binding domain inhibition assay may be considered as an alternative representation of physiological cellular conditions for evaluating the inhibitory activity of some of the tested small molecules.
For the assay, all purified small GTPases proteins were diluted in Buffer-I or Buffer-II to a final concentration of 10-30 μg/mL. 200 μL of each diluted protein was added to a nickel-coated 96-well plate and incubated overnight at 4° C. Then the protein solution was discarded and 200 μL of Buffer-I or Buffer-II was added to each well in the presence of 1% DMSO. Compounds to be tested were added to the protein-coated wells at final concentration of 20 μM, and incubated for 3 hours at room temperature with and without 10-30 μg/mL of Sos added to the final hour of the incubation. When performing IC50 measurements a serial dilution of all tested concentrations was added. Then Cy3-GTP or Cy5-GTP was added to each well to a final concentration of 100 nM. The labeled GTP was incubated for 45 minutes at room temperature. Following GTP incubation, wells were washed 3× in Buffer-I or Buffer-II and 200 μL of Buffer-I or Buffer-II was added to each well. Following washes, the amount of bound labeled-GTP was measured using a SpectraMax M3 (Molecular Devices).

[1] = + SOS, read-out: KRas Q61H mutant + SOS: % inh.
[2] = without SOS, read-out: KRas Q61H mutant: % inh.

Row | Structure (SMILES) | IC50 (MiaPaca2) [µM] | inhibition at 20 µM (KRas Q61H mutant; [1]) [%] | inhibition at 20 µM (KRas Q61H mutant; [2]) [%] | IC50 (KRas Q61H mutant; + SOS) [µM] | inhibition at 10 µM (ERK1/2 phosphorylation) [%] | inhibition at 10 µM (AKT phosphorylation) [%] | inhibition at 10 µM (MiaPaca2) [%]
1 | Cc1c(-c2ccn(C(C)C)n2)sc2nc(-c3nccn3C)nc(NCC3COCCN3C)c12 (racemic) [Compound 24, rac-6-(1-Isopropyl-1H-pyrazol-3-yl)-5-methyl-2-(1-methyl-1H-imidazol-2-yl)-N-((4-methylmorpholin-3-yl)methyl)thieno[2,3-d]pyrimidin-4-amine] | 5 to 10 | 76 to 100 | 46 to 75 | – | 0 | 0 | 76 to 100
2 | Cc1c(-c2ccn(C(C)C)n2)sc2nc(-c3nccn3C)nc(NCC3CN(C)CCO3)c12 (racemic) [Compound 25, rac-6-(1-Isopropyl-1H-pyrazol-3-yl)-5-methyl-2-(1-methyl-1H-imidazol-2-yl)-N-((4-methylmorpholin-2-yl)methyl)thieno[2,3-d]pyrimidin-4-amine] | 5 to 10 | 76 to 100 | 76 to 100 | – | 0 | 1 to 25 | 46 to 75
3 | Cc1c(-c2ccn(C(C)C)n2)sc2nc(-c3nccn3C)nc(NCC3CCCO3)c12 (racemic) [Compound 26, rac-6-(1-Isopropyl-1H-pyrazol-3-yl)-5-methyl-2-(1-methyl-1H-imidazol-2-yl)-N-((tetrahydrofuran-2-yl)methyl)thieno[2,3-d]pyrimidin-4-amine] | > 10 | 76 to 100 | 76 to 100 | – | 0 | 0 | 46 to 75
4 | COCC1(OC)CCN(c2nc(-c3nccn3C)nc3sc(-c4ccn(C(C)C)n4)c(C)c23)C1 (racemic) [Compound 27, rac-6-(1-Isopropyl-1H-pyrazol-3-yl)-4-(3-methoxy-3-(methoxymethyl)pyrrolidin-1-yl)-5-methyl-2-(1-methyl-1H-imidazol-2-yl)thieno[2,3-d]pyrimidine] | 5 to 10 | 76 to 100 | 46 to 75 | – | 1 to 25 | 26 to 45 | 76 to 100
5 | COCCn1ccc(-c2sc3nc(-c4nccn4C)nc(NC[C@H]4CC[C@H]4COC)c3c2C)n1 (racemic) [Compound 38, rac-6-(1-(2-Methoxyethyl)-1H-pyrazol-3-yl)-N-(((1S,2R)-2-(methoxymethyl)cyclobutyl)methyl)-5-methyl-2-(1-methyl-1H-imidazol-2-yl)thieno[2,3-d]pyrimidin-4-amine] | 5 to 10 | 76 to 100 | 46 to 75 | – | 46 to 75 | 0 | 76 to 100
6 | COCCn1ccc(-c2sc3nc(-c4nccn4C)nc(N[C@@H]4CC[C@H](OC)C4)c3c2C)n1 (racemic) [Compound 39, rac-N-((1R,3S)-3-Methoxycyclopentyl)-6-(1-(2-methoxyethyl)-1H-pyrazol-3-yl)-5-methyl-2-(1-methyl-1H-imidazol-2-yl)thieno[2,3-d]pyrimidin-4-amine] | 5 to 10 | 76 to 100 | 76 to 100 | – | 1 to 25 | 76 to 100 | 76 to 100
7 | COCCn1ccnc1-c1nc(N[C@H]2C[C@@H](OC)C2)c2c(-c3ccccc3)c(-c3ccn(C)n3)sc2n1 [Compound 13, N-((1s,3s)-3-methoxycyclobutyl)-2-(1-(2-methoxyethyl)-1H-imidazol-2-yl)-6-(1-methyl-1H-pyrazol-3-yl)-5-phenylthieno[2,3-d]pyrimidin-4-amine] | – | 76 to 100 | 76 to 100 | 1 to 4.99 | – | – | –

Now from value to compound, other results behind:

Row | IC50 (MiaPaca2) [µM] | inhibition at 20 µM (KRas Q61H mutant; [1]) [%] | inhibition at 20 µM (KRas Q61H mutant; [2]) [%] | IC50 (KRas Q61H mutant; + SOS) [µM] | Structure (SMILES) | inhibition at 10 µM (ERK1/2 phosphorylation) [%] | inhibition at 10 µM (AKT phosphorylation) [%] | inhibition at 10 µM (MiaPaca2) [%]
8 | 5 to 10 | 76 to 100 | 26 to 45 | – | COC1CCCN(c2nc(-c3nccn3C)nc3sc(-c4ccn(C(C)C)n4)c(C)c23)C1 (racemic) [Compound 14, rac-6-(1-Isopropyl-1H-pyrazol-3-yl)-4-(3-methoxypiperidin-1-yl)-5-methyl-2-(1-methyl-1H-imidazol-2-yl)thieno[2,3-d]pyrimidine] | 76 to 100 | 46 to 75 | 76 to 100
9 | 5 to 10 | 76 to 100 | 76 to 100 | – | COCC1CN(c2nc(-c3nccn3C)nc3sc(-c4ccn(C(C)C)n4)c(C)c23)CCO1 (racemic) [Compound 15, 4-(6-(1-Isopropyl-1H-pyrazol-3-yl)-5-methyl-2-(1-methyl-1H-imidazol-2-yl)thieno[2,3-d]pyrimidin-4-yl)-2-(methoxymethyl)morpholine] | 46 to 75 | 76 to 100 | 46 to 75
10 | 1 to 4.99 | 76 to 100 | 46 to 75 | – | COCCO[C@H]1CC[C@@H](Nc2nc(-c3nccn3C)nc3sc(-c4ccn(C(C)C)n4)c(C)c23)C1 (racemic) [Compound 20, rac-6-(1-Isopropyl-1H-pyrazol-3-yl)-N-((1R,3S)-3-(2-methoxyethoxy)cyclopentyl)-5-methyl-2-(1-methyl-1H-imidazol-2-yl)thieno[2,3-d]pyrimidin-4-amine] | 46 to 75 | 26 to 45 | 76 to 100
11 | 1 to 4.99 | 76 to 100 | 26 to 45 | – | COc1cccc(-c2sc3nc(-c4nccn4C)nc(N[C@@H]4CC[C@@H](OC)C4)c3c2-c2ccccc2)c1F (racemic) [Compound 41, 6-(2-Fluoro-3-methoxyphenyl)-N-((1R,3R)-3-methoxycyclopentyl)-2-(1-methyl-1H-imidazol-2-yl)-5-phenylthieno[2,3-d]pyrimidin-4-amine] | 76 to 100 | 76 to 100 | 76 to 100
